From ChEMBL document CHEMBL1201862, “PubChem BioAssay data set” (2004)
Activity calls are given as the source filed them.

What was measured:
[1] = A Cell Based Secondary Assay To Explore Cytotoxicity of Compounds that Sensitize Mycobacterium Tuberculosis to Beta-Lactam Antibiotics.; format: functional
[2] = viability of PTEN-deleted HCT116 cells – cell-based, HCT116 PTEN knockout, dose response (AID 1047); format: functional;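 note: HCT116 colon tumor cells with PTEN knocked out; cells exposed to compound for 60 hours before readout; potency for loss of cell viability measured by luminescence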
[3] = viability of HCT116 lacking mutant beta-catenin – cell-based, human colon tumor, dose response (AID 1045); format: functional;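 note: HCT116 colon tumor cells with beta catenin knocked out; cells exposed to compound for 60 hours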
[4] = Intein inhibitors as potential Tuberculosis drugs, a cytotoxicity screen. [Related pubchem assays (depositor defined):AID2221, AID2223, AID434968, AID435010, AID449749, AID449750, AID489010]; format: functional
[5] = biological target: T1, Replicative DNA helicase DnaB (Mycobacterium tuberculosis, UniProt P9WMR3); experiment: DnaB intein splicing inhibitors, dose response, biochemical, cell-free fluorescence (AID 449749); format: functional
T1 sequence (P9WMR3 whole entry): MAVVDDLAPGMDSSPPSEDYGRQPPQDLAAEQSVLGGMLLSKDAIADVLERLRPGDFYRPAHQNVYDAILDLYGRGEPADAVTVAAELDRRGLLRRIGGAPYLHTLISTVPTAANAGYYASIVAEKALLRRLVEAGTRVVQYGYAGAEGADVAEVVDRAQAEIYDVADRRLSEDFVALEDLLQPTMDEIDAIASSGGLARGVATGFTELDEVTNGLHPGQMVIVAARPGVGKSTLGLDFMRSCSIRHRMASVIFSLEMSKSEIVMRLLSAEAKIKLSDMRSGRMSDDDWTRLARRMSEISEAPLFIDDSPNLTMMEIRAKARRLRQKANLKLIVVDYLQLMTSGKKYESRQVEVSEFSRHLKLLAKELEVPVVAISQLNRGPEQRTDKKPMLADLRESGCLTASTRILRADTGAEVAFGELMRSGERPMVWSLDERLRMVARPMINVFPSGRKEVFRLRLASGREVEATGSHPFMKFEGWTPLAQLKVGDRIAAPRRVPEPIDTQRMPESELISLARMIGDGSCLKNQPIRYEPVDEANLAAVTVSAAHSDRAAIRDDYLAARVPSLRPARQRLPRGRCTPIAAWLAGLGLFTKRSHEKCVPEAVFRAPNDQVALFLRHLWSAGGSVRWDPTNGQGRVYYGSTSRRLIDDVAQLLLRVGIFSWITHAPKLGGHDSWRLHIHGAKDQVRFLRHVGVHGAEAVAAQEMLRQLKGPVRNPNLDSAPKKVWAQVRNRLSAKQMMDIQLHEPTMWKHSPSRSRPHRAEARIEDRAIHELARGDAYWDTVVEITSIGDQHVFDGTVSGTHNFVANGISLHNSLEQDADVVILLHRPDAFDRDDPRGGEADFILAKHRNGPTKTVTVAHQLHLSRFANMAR

[6] = biological target: T2, Protein RecA (Mycobacterium tuberculosis, UniProt P9WHJ3); experiment: Fluorescence Cell-Free Homogeneous Dose Retest to Identify Inhibitors of RecA-Intein Splicing Activity. [Related pubchem assays (depositor defined):AID2097, AID2223, AID489010, AID492950]; format: functional
T2 sequence (P9WHJ3 whole entry): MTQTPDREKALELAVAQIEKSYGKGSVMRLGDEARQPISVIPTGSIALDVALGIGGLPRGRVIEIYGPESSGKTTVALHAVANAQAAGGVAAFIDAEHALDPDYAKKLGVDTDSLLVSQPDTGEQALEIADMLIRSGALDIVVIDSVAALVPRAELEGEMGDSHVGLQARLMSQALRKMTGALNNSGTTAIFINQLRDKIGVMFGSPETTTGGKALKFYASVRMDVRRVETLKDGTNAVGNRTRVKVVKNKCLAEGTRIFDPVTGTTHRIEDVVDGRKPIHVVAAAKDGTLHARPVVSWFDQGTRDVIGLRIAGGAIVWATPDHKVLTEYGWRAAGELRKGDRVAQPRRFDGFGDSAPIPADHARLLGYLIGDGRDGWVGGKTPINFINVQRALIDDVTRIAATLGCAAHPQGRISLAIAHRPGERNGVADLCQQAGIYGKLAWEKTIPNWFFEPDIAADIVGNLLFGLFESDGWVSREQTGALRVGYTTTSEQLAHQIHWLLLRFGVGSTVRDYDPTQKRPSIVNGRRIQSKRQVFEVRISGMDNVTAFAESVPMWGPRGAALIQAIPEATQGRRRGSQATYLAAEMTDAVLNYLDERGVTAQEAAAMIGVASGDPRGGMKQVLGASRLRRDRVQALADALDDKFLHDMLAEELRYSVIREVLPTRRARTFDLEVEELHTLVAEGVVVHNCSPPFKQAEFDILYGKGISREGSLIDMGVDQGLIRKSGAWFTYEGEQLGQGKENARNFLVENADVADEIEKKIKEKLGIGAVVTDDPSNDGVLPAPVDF

[7] = biological target: T3, High affinity choline transporter 1 (Homo sapiens, UniProt Q9GZV3); experiment: human choline transporter potentiators, potency – cell-based, 10-point CRC, membrane potential dye, dose response (AID 602376); format: functional
T3 sequence (Q9GZV3 whole entry): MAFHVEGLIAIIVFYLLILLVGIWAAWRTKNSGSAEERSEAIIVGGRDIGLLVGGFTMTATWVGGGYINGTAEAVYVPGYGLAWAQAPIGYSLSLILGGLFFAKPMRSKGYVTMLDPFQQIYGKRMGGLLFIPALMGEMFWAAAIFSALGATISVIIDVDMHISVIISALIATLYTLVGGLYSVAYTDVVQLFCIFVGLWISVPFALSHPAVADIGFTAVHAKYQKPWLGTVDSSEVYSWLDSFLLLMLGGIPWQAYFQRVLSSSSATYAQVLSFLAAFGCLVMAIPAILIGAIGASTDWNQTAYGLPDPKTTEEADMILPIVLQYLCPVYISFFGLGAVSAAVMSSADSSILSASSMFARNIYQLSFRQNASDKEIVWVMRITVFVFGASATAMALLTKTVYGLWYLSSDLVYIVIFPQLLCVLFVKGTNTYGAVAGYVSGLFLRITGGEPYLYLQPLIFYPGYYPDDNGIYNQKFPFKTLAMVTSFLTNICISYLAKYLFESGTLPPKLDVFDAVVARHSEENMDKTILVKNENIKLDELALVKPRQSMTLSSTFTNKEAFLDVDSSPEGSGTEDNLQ

[8] = biological target: Paired box protein Pax-8 (Homo sapiens, UniProt Q06710); experiment: PAX8 transcriptional activity inhibition in RMG-I – RMG-I cells, luciferase, cherry-pick, dose response (AID 687027); format: functional, cell-based;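 note: luciferase reporter driven by Pax8 target thyroperoxidase promoter measured by SteadyGlo luminescence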
[9] = general cell-killing toxicity readout – plate reader, dry powder samples, cytotoxicity control for PAX8 inhibitor project, dose response (AID 743021); format: functional, cell-based
[10] = biological target: Tyrosine-protein phosphatase non-receptor type 11 (Homo sapiens, UniProt Q06124); experiment: PTPN11 enzyme inhibitors – biochemical, selectivity assay for STEP inhibitor project, dose response (AID 602367); format: functional; settings: read-out: IC50_Mean
[11] = biological target: Tyrosine-protein phosphatase non-receptor type 5 (Homo sapiens, UniProt P54829); experiment: PTPN5 enzyme inhibition – biochemical, fluorescence intensity, uHTS hits, confirmation (AID 602372); format: functional; settings: read-out: IC50_Mean
[12] = biological target: Dual specificity protein phosphatase 3 (Homo sapiens, UniProt P51452); experiment: VHR phosphatase inhibition, dose response, selectivity assay for STEP inhibitor project, biochemical (AID 602374); format: functional; settings: read-out: IC50_Mean
[13] = biological target: T4, Caspase-6 (Homo sapiens, UniProt P55212); experiment: inhibition of CASP6 peptide cleavage – biochemical, VEID-R110 fluorescence, cherry-pick, dose response (AID 720632)
T4 sequence (P55212 whole entry): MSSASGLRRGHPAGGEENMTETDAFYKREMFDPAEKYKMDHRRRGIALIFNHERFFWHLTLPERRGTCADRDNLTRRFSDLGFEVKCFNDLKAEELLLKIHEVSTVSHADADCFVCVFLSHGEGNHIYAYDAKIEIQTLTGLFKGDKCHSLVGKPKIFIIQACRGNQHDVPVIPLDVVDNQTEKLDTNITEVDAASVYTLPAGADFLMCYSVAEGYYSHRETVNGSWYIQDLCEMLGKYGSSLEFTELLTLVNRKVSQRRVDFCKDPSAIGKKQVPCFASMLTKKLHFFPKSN

[14] = biological target: Protein disulfide-isomerase (Homo sapiens, UniProt P07237); experiment: inhibition of PDI-driven insulin aggregation – biochemical, turbidity, absorbance, cherry-picked samples, dose response (AID 602350); format: functional
Protein disulfide-isomerase, sequence (P07237 whole entry): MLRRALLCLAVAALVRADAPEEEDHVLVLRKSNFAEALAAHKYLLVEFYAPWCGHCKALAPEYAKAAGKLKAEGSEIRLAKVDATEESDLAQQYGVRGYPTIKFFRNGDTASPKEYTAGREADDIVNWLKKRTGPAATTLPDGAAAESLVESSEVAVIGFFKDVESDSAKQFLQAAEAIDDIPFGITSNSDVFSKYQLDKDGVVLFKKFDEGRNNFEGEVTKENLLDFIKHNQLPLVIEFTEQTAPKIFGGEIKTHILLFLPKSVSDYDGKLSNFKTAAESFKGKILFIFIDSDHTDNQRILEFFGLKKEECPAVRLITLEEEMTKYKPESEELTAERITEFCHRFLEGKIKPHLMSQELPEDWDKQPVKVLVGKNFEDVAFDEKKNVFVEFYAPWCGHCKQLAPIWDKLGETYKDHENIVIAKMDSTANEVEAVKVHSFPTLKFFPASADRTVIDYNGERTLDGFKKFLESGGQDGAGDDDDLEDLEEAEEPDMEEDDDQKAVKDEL

Dual specificity protein phosphatase 3, sequence (P51452 whole entry): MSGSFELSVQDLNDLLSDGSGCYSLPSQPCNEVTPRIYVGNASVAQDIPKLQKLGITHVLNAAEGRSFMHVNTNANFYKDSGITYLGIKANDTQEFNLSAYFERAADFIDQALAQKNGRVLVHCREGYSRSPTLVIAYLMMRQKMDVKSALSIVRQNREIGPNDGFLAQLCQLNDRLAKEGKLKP
Paired box protein Pax-8, sequence (Q06710 whole entry): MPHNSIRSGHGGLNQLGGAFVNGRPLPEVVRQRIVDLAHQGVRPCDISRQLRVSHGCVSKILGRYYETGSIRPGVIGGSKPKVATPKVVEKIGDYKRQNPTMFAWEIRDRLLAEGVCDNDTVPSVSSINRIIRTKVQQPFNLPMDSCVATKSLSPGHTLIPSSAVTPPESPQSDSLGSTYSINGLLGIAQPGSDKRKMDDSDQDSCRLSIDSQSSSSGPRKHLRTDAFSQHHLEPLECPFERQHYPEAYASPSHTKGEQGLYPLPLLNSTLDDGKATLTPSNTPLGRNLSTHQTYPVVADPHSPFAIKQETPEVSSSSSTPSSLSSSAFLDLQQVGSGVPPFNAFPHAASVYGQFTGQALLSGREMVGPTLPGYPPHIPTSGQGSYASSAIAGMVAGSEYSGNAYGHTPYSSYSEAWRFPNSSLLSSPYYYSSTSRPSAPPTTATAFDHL
Tyrosine-protein phosphatase non-receptor type 5, sequence (P54829 whole entry): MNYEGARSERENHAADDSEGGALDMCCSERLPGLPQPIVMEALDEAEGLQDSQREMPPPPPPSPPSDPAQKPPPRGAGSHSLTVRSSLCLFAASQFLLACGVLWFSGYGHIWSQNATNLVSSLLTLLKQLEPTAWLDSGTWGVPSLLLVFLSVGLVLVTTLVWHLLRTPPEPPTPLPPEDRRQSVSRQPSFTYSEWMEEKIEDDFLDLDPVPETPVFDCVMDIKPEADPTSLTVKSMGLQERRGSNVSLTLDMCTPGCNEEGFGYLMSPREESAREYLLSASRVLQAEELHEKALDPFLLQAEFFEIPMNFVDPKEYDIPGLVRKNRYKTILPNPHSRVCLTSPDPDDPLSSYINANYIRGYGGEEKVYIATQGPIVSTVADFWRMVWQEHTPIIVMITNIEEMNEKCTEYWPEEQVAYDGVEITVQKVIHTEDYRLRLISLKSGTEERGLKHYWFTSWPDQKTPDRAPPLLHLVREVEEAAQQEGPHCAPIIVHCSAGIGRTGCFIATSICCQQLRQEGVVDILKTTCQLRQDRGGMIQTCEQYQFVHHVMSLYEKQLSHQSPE
Tyrosine-protein phosphatase non-receptor type 11, sequence (Q06124 whole entry): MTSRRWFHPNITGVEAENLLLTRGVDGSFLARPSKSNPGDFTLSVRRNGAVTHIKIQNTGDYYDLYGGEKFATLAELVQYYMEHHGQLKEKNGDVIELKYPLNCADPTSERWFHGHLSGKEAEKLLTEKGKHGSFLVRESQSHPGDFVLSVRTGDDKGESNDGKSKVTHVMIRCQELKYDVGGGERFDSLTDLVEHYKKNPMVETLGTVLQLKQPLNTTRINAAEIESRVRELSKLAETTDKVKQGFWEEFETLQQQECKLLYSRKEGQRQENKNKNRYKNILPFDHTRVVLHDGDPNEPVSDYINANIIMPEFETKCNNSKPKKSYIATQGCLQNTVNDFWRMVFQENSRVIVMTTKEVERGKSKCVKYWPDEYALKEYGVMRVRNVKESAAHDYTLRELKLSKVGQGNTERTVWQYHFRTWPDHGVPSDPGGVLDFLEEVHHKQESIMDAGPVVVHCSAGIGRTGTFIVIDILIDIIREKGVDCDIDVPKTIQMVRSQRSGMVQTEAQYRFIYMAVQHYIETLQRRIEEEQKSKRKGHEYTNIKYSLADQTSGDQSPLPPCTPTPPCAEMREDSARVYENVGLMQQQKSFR

Cc1nn(-c2ccccc2)c(Cl)c1CN(C(=O)CCl)c1cccc2ccccc12
active: CC50 [1] 591 nM | EC50 [2] 3440 nM | EC50 [3] 2250 nM | CC50 [4] 1810 nM | AC50 [5] 2280 nM | EC50 [6] 571 nM | EC50 [7] 16700 nM | AC50 [8] 9950 nM | AC50 [9] 11300 nM

COC(=O)c1ccccc1CSc1nsc(/C=C/N(C)C)c1C#N
active: IC50 [10] 2380 nM | IC50 [11] 14500 nM | IC50 [12] 1290 nM | AC50 [13] 34500 nM

COc1ccc(C2c3ccc(O)cc3Oc3ncn(CCN4CCOCC4)c(=N)c32)cc1OC (centres undefined)
active: AC50 [14] 15500 nM
